The target in assay [1] is Bile salt export pump (Homo sapiens, UniProt O95342). Put plainly: Inhibition of human BSEP overexpressed in Sf9 cell membrane vesicles assessed as uptake of [3H]-taurocholate in presence of ATP measured after 15 to 20 mins by membrane vesicle transport assay. The assay is classed as ADME, cell-based.
Assay [2] deals with ATP-binding cassette sub-family C member 3 (Homo sapiens, UniProt O15438). Put plainly: Inhibition of human MRP3 overexpressed in Sf9 insect cell membrane vesicles assessed as uptake of [3H]-estradiol-17beta-D-glucuronide in presence of ATP and GSH measured after 10 mins by membrane vesicle transport assay. The assay is classed as ADME, cell-based.
Assay [3] deals with ATP-binding cassette sub-family C member 2 (Homo sapiens, UniProt Q92887). Put plainly: Inhibition of human MRP2 overexpressed in Sf9 cell membrane vesicles assessed as uptake of [3H]-estradiol-17beta-D-glucuronide in presence of ATP and GSH measured after 20 mins by membrane vesicle transport assay.
The target in assay [4] is T1, ATP-binding cassette sub-family C member 4 (Homo sapiens, UniProt O15439).
T1 sequence (O15439 whole entry): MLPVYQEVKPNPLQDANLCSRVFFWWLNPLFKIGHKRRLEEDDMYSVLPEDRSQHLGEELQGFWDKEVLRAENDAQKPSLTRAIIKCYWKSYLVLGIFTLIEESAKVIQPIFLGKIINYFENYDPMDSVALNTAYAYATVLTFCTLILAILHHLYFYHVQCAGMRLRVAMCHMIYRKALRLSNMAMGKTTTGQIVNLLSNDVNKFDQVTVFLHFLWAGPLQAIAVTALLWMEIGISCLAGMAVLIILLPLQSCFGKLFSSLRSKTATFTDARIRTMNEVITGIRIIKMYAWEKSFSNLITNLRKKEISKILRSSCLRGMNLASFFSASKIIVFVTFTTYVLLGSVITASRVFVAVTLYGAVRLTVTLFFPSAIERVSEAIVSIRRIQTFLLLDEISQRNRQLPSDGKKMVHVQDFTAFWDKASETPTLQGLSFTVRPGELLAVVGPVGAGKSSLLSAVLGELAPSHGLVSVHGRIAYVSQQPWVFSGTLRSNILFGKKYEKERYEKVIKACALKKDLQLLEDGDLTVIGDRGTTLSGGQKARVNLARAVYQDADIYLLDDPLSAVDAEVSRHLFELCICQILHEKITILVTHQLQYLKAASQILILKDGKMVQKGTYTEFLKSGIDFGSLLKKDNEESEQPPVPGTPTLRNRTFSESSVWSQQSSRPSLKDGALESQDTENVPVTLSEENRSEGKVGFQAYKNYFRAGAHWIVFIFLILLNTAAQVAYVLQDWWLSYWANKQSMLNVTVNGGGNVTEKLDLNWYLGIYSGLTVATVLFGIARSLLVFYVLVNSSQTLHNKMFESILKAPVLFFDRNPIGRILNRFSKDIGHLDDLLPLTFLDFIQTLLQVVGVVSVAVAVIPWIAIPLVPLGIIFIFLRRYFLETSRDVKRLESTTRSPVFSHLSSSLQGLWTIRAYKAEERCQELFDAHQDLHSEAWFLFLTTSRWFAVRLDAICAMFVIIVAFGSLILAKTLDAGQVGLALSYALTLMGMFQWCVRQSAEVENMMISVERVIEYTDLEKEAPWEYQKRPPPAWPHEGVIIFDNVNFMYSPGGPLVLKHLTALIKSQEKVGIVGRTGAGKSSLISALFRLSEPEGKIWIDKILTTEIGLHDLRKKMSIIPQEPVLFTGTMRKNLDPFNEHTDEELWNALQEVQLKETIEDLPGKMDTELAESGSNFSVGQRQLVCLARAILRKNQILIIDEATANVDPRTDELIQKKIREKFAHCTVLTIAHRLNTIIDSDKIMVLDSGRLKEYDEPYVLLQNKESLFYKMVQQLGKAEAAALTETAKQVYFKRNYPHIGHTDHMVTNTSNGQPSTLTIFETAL
Put plainly: Inhibition of human MRP4 overexpressed in Sf9 cell membrane vesicles assessed as uptake of [3H]-estradiol-17beta-D-glucuronide in presence of ATP and GSH measured after 20 mins by membrane vesicle transport assay. The class given is ADME, cell-based.

Results on 30 compounds are retold here after ChEMBL document CHEMBL4028801, “A multifactorial approach to hepatobiliary transporter assessment enables improved therapeutic compound development” (Toxicol Sci, 2013).

Positions of bridges follow the written chain, without caps; N, C: chain ends. Residues, ends and D or L forms follow the SMILES beside them.

Bile salt export pump, sequence (O95342 whole entry): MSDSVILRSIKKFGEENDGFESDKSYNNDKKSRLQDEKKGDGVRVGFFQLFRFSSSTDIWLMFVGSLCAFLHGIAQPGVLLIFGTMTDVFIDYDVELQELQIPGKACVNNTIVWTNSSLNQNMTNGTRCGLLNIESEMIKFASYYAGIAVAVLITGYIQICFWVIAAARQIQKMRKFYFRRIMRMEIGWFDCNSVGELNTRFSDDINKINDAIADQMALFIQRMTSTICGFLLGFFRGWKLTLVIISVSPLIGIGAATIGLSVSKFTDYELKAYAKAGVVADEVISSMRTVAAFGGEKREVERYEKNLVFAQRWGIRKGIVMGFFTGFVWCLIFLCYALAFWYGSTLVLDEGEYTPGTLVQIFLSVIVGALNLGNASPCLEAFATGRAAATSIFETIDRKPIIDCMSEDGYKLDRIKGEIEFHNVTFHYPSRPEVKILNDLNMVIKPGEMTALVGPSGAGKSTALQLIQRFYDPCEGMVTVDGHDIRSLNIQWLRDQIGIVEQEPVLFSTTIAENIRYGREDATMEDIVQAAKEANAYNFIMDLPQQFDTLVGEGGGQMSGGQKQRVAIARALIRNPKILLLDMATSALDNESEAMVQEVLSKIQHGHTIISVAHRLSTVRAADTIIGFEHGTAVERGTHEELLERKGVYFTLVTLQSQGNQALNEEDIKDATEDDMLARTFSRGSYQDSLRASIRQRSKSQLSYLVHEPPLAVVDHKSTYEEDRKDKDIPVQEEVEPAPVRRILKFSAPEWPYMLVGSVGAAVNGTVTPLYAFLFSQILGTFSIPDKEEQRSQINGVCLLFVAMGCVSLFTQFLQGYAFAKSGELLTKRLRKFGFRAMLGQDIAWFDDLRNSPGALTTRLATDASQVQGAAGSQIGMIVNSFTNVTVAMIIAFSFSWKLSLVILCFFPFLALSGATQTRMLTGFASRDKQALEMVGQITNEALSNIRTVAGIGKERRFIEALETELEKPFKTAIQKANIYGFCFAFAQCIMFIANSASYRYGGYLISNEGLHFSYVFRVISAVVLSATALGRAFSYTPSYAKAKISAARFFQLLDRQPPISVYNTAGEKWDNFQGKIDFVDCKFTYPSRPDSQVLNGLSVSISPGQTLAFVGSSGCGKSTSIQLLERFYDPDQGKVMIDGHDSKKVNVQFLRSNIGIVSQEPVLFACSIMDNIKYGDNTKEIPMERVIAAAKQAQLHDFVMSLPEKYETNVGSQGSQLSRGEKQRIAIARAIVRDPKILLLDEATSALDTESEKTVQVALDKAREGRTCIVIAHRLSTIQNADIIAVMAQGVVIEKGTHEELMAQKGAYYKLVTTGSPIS
ATP-binding cassette sub-family C member 2, sequence (Q92887 whole entry): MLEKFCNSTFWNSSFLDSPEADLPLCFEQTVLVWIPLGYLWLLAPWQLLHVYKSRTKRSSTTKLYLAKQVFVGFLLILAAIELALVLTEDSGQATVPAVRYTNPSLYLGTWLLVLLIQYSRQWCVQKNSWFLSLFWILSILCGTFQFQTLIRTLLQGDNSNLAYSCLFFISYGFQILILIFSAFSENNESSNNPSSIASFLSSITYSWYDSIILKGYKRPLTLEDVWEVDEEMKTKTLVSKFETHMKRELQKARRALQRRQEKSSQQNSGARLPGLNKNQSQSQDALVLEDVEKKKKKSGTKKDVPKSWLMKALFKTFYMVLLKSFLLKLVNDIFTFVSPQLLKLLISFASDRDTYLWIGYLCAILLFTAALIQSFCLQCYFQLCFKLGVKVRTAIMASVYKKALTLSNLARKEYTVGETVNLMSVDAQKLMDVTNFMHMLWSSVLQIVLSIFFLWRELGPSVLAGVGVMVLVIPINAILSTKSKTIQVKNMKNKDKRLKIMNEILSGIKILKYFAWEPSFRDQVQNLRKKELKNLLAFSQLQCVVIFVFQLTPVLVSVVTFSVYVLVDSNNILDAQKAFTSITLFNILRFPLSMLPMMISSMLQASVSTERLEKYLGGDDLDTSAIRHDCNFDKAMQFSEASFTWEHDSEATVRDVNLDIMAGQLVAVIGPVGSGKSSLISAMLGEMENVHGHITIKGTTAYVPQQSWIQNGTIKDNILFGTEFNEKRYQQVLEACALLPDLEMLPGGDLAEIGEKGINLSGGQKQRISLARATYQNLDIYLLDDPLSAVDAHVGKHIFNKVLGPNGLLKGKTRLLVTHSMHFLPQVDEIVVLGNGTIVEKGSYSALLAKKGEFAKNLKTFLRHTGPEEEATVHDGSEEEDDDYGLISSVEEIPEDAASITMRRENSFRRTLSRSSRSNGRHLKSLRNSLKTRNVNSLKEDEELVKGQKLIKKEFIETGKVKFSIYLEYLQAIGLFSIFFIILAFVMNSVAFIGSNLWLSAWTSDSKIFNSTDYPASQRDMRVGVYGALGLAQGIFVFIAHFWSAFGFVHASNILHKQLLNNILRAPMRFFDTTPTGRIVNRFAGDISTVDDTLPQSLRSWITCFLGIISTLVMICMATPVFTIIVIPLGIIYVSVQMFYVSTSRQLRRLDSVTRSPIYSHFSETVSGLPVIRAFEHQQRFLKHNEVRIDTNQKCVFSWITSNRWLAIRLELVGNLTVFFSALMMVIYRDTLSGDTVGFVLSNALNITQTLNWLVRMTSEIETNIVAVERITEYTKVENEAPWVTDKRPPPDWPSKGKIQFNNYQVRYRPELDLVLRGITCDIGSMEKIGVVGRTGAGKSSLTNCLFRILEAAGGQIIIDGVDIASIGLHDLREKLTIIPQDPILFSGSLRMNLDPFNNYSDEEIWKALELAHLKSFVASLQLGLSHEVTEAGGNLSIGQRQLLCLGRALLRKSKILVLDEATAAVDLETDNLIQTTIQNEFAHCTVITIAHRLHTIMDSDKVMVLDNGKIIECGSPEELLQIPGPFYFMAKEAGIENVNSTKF
ATP-binding cassette sub-family C member 3, sequence (O15438 whole entry): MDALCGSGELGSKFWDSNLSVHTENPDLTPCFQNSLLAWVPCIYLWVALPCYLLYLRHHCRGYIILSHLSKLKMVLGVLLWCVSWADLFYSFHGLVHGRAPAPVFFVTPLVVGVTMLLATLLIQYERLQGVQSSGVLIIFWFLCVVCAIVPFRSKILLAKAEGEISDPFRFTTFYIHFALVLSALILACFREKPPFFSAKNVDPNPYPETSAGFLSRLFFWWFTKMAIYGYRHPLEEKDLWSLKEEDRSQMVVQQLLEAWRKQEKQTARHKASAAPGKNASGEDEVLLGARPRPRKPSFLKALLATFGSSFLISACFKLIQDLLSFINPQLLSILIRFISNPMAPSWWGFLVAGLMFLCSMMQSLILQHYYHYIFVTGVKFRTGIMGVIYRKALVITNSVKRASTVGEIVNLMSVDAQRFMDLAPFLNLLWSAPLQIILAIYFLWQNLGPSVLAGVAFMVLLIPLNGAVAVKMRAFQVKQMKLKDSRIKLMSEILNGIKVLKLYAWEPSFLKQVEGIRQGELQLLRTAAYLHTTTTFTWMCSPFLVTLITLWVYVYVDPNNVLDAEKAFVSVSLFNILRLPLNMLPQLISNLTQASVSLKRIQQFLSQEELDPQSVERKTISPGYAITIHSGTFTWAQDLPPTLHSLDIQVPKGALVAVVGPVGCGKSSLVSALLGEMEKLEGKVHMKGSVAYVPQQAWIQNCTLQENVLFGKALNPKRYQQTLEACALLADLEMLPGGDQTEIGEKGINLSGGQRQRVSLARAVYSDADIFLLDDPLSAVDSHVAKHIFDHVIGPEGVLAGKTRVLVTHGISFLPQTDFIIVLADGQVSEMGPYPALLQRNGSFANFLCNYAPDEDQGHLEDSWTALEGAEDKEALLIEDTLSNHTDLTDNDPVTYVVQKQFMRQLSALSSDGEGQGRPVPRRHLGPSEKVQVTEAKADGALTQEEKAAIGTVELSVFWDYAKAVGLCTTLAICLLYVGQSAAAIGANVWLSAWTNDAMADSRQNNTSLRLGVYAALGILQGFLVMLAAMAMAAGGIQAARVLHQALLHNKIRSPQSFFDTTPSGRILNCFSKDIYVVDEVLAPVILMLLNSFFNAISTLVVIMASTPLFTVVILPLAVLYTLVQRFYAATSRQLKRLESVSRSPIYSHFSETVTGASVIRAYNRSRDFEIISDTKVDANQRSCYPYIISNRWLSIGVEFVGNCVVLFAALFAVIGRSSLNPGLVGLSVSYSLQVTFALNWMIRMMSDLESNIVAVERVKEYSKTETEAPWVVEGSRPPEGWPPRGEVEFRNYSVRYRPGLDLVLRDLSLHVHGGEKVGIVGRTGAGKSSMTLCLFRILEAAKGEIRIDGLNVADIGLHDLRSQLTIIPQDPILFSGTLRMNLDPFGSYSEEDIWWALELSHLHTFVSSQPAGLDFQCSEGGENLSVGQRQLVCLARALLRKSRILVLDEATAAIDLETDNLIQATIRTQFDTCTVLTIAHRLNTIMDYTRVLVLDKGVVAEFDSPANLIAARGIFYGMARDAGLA

As usually defined, the IC50 is the concentration at which inhibition is half-maximal. For `N[C@@H](C(=O)N[C@@H]1C(=O)N2C(C(=O)O)=C(Cl)CS[C@H]12)c1ccccc1` [CEFACLOR ANHYDROUS], the IC50 in assay [1], in assay [2], in assay [3] and in assay [4] was over 133 µM throughout.

Regarding `CO[C@H]1O[C@@H]2O[C@@]3(C)CC[C@H]4[C@H](C)CC[C@@H]([C@H]1C)[C@@]24OO3`, the IC50 in assay [1], in assay [2], in assay [3] and in assay [4] was over 133 µM throughout.

As for `CCCSc1ccc2nc(NC(=O)OC)[nH]c2c1` [ALBENDAZOLE], the IC50 in assay [1], in assay [2], in assay [3] and in assay [4] was over 133 µM throughout.

For `CC(=O)NC[C@H]1CN(c2ccc(N3CCOCC3)c(F)c2)C(=O)O1` [LINEZOLID], the IC50 in assay [1], in assay [2], in assay [3] and in assay [4] was over 133 µM throughout.

Regarding `CC(CN1c2ccccc2Sc2ccccc21)N(C)C` (stereo not given) [PROMETHAZINE], the IC50 in assay [1], in assay [2], in assay [3] and in assay [4] was over 133 µM each time.

Consider `NS(=O)(=O)c1cc(C2(O)NC(=O)c3ccccc32)ccc1Cl` (stereo not given) [CHLORTHALIDONE], for which the IC50 in assay [1], in assay [2], in assay [3] and in assay [4] was over 133 µM in each case.

With `C[C@@H]1CCC[C@H](C)N1NC(=O)c1ccc(Cl)c(S(N)(=O)=O)c1` [CLOPAMIDE], the 50% inhibitory concentration (IC50) in assay [1], in assay [2], in assay [3] and in assay [4] was over 133 µM each time.

Take `C[C@@H](O[C@H]1OCCN(Cc2n[nH]c(=O)[nH]2)[C@H]1c1ccc(F)cc1)c1cc(C(F)(F)F)cc(C(F)(F)F)c1` [APREPITANT]: the IC50 in assay [1], in assay [2], in assay [3] and in assay [4] was over 133 µM throughout.

With `Cc1nc2ccc(CN(C)c3ccc(C(=O)N[C@@H](CCC(=O)O)C(=O)O)s3)cc2c(=O)[nH]1` [RALTITREXED], the IC50 in assay [1], in assay [2], in assay [3] and in assay [4] was over 133 µM each time.

With `CC(=O)Nc1ccc(/C=N/NC(N)=S)cc1` [AMITHIOZONE], the IC50 in assay [1], in assay [2], in assay [3] and in assay [4] was over 133 µM each time.

For `CC(=O)CC(c1ccccc1)c1c(O)c2ccccc2oc1=O` (stereo not given) [WARFARIN SODIUM], the IC50 in assay [1], in assay [2], in assay [3] and in assay [4] was over 133 µM in each case.

On to `O=C(NC[C@H]1CN(c2ccc(N3CCOCC3=O)cc2)C(=O)O1)c1ccc(Cl)s1` [RIVAROXABAN], for which the IC50 in assay [1], in assay [2], in assay [3] and in assay [4] was over 133 µM in each case.

For the compound `CC1(C)S[C@@H]2[C@H](NC(=O)[C@H](NC(=O)N3CCNC3=O)c3ccccc3)C(=O)N2[C@H]1C(=O)O` [AZLOCILLIN SODIUM], the IC50 in assay [1], in assay [2], in assay [3] and in assay [4] was over 133 µM throughout.

Turning to `CCN1CCN(C(=O)N[C@@H](C(=O)N[C@@H]2C(=O)N3[C@@H]2SC(C)(C)[C@@H]3C(=O)O)c2ccccc2)C(=O)C1=O` [PIPERACILLIN SODIUM], the IC50 in assay [1], in assay [2], in assay [3] and in assay [4] was over 133 µM each time.

With `CN(Cc1cnc2nc(N)nc(N)c2n1)c1ccc(C(=O)N[C@@H](CCC(=O)O)C(=O)O)cc1` [METHOTREXATE], the IC50 in assay [1], in assay [2], in assay [3] and in assay [4] was over 133 µM throughout.

In the case of `C[C@H]1[C@H](OC(=O)CCC(=O)O)O[C@@H]2O[C@@]3(C)CC[C@H]4[C@H](C)CC[C@@H]1[C@@]24OO3` [ARTESUNATE], the IC50 in assay [1], in assay [2], in assay [3] and in assay [4] was over 133 µM each time.

With `Cc1cn([C@H]2C=C[C@@H](CO)O2)c(=O)[nH]c1=O` [STAVUDINE], the IC50 in assay [1], in assay [2], in assay [3] and in assay [4] was over 133 µM throughout.

As to `CN1CCC[C@H]1c1cccnc1` [NICOTINE], the IC50 in assay [1], in assay [2], in assay [3] and in assay [4] was over 133 µM in each case.

With `NCCCC[C@H](NC(=O)[C@@H]1CCCN1C(=O)[C@@H]1CSSC[C@H](NC(=O)CNC(=O)CNC(=O)CN)C(=O)N[C@@H](Cc2ccc(O)cc2)C(=O)N[C@@H](Cc2ccccc2)C(=O)N[C@@H](CCC(N)=O)C(=O)N[C@@H](CC(N)=O)C(=O)N1)C(=O)NCC(N)=O` (H-GGGCYFQNCPKG-NH2; disulfide 4-9), the IC50 in assay [1], in assay [2], in assay [3] and in assay [4] was over 133 µM each time.

With `CSc1ccc(C(=O)c2[nH]c(=O)[nH]c2C)cc1` [ENOXIMONE], the IC50 in assay [1], in assay [2], in assay [3] and in assay [4] was over 133 µM throughout.

With `O=c1[nH]c2ccccc2n1CCCN1CCC(n2c(=O)[nH]c3cc(Cl)ccc32)CC1` [DOMPERIDONE], the IC50 in assay [1], in assay [2], in assay [3] and in assay [4] was over 133 µM each time.

On to `CN(C)CCC(c1ccc(Cl)cc1)c1ccccn1` (stereo not given) [CHLORPHENIRAMINE], for which the IC50 in assay [1], in assay [2], in assay [3] and in assay [4] was over 133 µM in each case.

Regarding `CC1CCN(CCCC(=O)c2ccc(F)cc2)CC1` [MELPERONE], the concentration for half-maximal inhibition (IC50) in assay [1], in assay [2], in assay [3] and in assay [4] was over 133 µM each time.

In the case of `CCN(CC)CCNC(=O)c1cc(Br)c(N)cc1OC` [BROMOPRIDE], the IC50 in assay [1], in assay [2], in assay [3] and in assay [4] was over 133 µM in each case.

`CCCN(CCC)S(=O)(=O)c1ccc(C(=O)O)cc1` [PROBENECID]: the IC50 in assay [1], in assay [2], in assay [3] and in assay [4] was over 133 µM each time.

On to `CCN(CC)C(=O)c1cccnc1` [NIKETHAMIDE], for which the IC50 in assay [1], in assay [2], in assay [3] and in assay [4] was over 133 µM in each case.

As for `Cc1cn([C@@H]2C[C@@H](O)[C@H](CO)O2)c(=O)[nH]c1=O` [TELBIVUDINE], the IC50 in assay [1], in assay [2], in assay [3] and in assay [4] was over 133 µM throughout.

`Cc1c(OCC(F)(F)F)ccnc1C[S@@+]([O-])c1nc2ccccc2[nH]1` [DEXLANSOPRAZOLE]: the IC50 in assay [1], in assay [2], in assay [3] and in assay [4] was over 133 µM each time.

For `CCCCCCCCCCC[C@@H](C[C@@H]1OC(=O)[C@H]1CCCCCC)OC(=O)[C@H](CC(C)C)NC=O` [ORLISTAT], the IC50 in assay [1], in assay [2], in assay [3] and in assay [4] was over 133 µM throughout.

Regarding `CCOc1cc2ncc(C#N)c(Nc3ccc(OCc4ccccn4)c(Cl)c3)c2cc1NC(=O)/C=C/CN(C)C` [NERATINIB], the IC50 was 25 µM in assay [1], over 133 µM in assay [2], over 133 µM in assay [3] and 23 µM in assay [4].
